Assays:
[1] = test system: Leucine-rich repeat serine/threonine-protein kinase 2 (Homo sapiens), Q5S007 [G2019S]; conditions: Compound concentration 1000.0 nM
[2] = target: Bone morphogenetic protein receptor type-2 (Homo sapiens) (UniProt Q13873); conditions: Compound concentration 1000.0 nM
[3] = target: Cyclin-dependent kinase 11B (Homo sapiens) (UniProt P21127); conditions: Compound concentration 1000.0 nM
[4] = target: Fibroblast growth factor receptor 1 (Homo sapiens) (UniProt P11362); conditions: Compound concentration 1000.0 nM
Chain of Fibroblast growth factor receptor 1 (Homo sapiens) (P11362 22-822 limits assumed): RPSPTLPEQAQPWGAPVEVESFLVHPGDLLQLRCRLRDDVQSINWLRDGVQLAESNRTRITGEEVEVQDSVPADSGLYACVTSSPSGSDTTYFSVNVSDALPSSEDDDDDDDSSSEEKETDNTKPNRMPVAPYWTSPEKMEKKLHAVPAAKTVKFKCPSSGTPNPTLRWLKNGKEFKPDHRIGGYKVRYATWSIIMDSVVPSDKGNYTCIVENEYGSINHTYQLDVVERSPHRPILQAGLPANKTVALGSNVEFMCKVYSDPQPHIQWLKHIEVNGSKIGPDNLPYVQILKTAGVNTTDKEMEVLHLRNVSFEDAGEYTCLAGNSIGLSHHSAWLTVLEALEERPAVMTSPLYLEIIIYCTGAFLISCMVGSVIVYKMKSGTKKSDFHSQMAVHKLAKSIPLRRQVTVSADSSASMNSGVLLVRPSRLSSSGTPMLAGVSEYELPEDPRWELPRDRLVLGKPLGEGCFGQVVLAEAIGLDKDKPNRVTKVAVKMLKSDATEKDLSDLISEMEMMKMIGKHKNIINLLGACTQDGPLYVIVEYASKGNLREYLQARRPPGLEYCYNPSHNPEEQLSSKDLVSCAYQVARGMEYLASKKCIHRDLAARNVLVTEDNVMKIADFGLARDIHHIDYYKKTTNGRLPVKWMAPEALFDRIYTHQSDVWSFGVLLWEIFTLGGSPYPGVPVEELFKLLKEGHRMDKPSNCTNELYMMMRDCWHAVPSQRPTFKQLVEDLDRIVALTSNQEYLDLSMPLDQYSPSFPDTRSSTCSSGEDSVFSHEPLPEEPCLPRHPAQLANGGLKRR

[5] = target: Serine/threonine-protein kinase 32A (Homo sapiens) (UniProt Q8WU08); conditions: Compound concentration 1000.0 nM
[6] = target: Serine/threonine-protein kinase B-raf (Homo sapiens) (UniProt P15056); conditions: Compound concentration 1000.0 nM
[7] = target: Testis-specific serine/threonine-protein kinase 3 (Homo sapiens) (UniProt Q96PN8); conditions: Compound concentration 1000.0 nM
[8] = target: Platelet-derived growth factor receptor beta (Homo sapiens) (UniProt P09619); conditions: Compound concentration 1000.0 nM
[9] = test system: Tyrosine-protein kinase ABL1 (Homo sapiens), P00519 [F317I]; conditions: Compound concentration 1000.0 nM
[10] = target: Inhibitor of nuclear factor kappa-B kinase subunit epsilon (Homo sapiens) (UniProt Q14164); conditions: Compound concentration 1000.0 nM
[11] = target: Serine/threonine-protein kinase NLK (Homo sapiens) (UniProt Q9UBE8); conditions: Compound concentration 1000.0 nM
[12] = target: Epidermal growth factor receptor (Homo sapiens) (UniProt P00533); conditions: Compound concentration 1000.0 nM
Chain of Epidermal growth factor receptor (Homo sapiens) (P00533 whole entry): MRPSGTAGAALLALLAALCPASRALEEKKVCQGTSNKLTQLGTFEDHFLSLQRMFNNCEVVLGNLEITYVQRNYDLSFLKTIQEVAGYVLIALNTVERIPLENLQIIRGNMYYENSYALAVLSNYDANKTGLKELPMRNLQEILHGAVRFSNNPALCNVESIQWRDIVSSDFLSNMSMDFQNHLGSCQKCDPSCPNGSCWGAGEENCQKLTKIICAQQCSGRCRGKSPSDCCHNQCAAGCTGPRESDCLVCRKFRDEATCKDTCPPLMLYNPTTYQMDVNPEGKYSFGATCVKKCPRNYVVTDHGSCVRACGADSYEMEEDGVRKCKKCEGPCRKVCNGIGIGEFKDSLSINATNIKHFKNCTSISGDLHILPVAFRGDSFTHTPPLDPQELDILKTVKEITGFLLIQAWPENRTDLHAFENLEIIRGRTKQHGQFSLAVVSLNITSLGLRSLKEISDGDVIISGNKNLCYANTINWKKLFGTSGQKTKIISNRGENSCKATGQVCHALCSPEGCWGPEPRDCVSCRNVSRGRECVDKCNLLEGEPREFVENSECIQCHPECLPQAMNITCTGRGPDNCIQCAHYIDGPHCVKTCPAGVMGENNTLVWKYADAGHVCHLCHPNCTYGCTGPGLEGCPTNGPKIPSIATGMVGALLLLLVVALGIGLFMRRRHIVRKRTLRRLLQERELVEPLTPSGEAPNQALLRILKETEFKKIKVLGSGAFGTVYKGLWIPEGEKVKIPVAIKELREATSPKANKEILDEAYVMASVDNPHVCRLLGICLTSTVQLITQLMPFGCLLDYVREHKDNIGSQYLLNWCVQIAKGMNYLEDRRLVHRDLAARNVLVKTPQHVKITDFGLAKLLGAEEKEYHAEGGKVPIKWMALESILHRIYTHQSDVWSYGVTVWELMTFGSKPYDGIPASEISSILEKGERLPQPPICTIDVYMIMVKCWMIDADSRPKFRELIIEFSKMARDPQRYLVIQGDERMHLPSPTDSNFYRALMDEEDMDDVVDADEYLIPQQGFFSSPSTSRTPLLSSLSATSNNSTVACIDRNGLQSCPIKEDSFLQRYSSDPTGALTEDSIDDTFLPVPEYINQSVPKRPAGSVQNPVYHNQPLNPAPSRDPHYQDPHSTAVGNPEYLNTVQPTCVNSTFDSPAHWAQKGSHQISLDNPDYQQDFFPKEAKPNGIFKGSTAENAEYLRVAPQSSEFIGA

[13] = target: Ribosomal protein S6 kinase alpha-3 (Homo sapiens) (UniProt P51812); conditions: Compound concentration 1000.0 nM
[14] = target: Protein kinase C theta type (Homo sapiens) (UniProt Q04759); conditions: Compound concentration 1000.0 nM
Chain of Protein kinase C theta type (Homo sapiens) (Q04759 whole entry, looked up): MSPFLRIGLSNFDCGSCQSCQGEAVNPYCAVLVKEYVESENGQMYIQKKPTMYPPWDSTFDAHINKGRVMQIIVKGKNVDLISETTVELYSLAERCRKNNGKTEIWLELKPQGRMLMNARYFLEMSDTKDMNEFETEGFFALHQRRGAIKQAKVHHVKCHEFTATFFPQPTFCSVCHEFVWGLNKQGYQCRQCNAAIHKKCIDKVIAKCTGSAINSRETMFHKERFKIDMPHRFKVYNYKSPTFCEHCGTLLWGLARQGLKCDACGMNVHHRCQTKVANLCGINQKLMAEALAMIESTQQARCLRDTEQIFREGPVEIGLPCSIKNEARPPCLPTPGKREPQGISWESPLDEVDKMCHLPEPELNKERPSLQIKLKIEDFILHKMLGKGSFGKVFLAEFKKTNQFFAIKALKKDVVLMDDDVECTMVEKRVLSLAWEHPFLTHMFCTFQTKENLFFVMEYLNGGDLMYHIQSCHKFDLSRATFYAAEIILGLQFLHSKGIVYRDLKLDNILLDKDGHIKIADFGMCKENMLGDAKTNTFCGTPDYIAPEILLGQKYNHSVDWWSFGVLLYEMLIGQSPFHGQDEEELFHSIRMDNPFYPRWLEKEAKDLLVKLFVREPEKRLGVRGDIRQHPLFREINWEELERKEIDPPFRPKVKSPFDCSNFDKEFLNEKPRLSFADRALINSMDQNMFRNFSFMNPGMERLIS

[15] = target: NT-3 growth factor receptor (Homo sapiens) (UniProt Q16288); conditions: Compound concentration 1000.0 nM
[16] = target: 5-hydroxytryptamine receptor 1D (Homo sapiens) (UniProt P28221); conditions: Compound concentration 10.0 uM
[17] = target: Mitogen-activated protein kinase 7 (Homo sapiens) (UniProt Q13164); conditions: Compound concentration 1000.0 nM
[18] = target: Inhibitor of nuclear factor kappa-B kinase subunit alpha (Homo sapiens) (UniProt O15111); conditions: Compound concentration 1000.0 nM
[19] = test system: Phosphatidylinositol 4,5-bisphosphate 3-kinase catalytic subunit alpha isoform (Homo sapiens), P42336 [H1047L]; conditions: Compound concentration 1000.0 nM
[20] = target: 5'-AMP-activated protein kinase catalytic subunit alpha-1 (Homo sapiens) (UniProt Q13131); conditions: Compound concentration 1000.0 nM
Chain of 5'-AMP-activated protein kinase catalytic subunit alpha-1 (Homo sapiens) (Q13131 whole entry, looked up): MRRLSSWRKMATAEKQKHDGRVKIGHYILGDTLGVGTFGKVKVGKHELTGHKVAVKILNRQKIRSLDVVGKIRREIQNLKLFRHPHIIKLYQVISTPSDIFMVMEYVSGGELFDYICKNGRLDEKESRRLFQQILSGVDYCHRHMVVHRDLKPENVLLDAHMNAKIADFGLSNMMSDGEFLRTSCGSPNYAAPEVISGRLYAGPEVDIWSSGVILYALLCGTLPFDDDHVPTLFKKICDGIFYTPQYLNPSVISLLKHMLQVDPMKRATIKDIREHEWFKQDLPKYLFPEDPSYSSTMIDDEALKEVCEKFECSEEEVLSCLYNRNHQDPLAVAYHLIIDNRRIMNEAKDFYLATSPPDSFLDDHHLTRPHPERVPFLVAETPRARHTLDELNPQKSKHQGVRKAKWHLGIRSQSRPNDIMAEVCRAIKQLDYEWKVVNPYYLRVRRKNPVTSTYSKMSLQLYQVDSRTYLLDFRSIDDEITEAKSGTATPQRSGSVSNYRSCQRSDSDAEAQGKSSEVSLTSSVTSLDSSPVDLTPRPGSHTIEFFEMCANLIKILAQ

[21] = target: Cytoplasmic tyrosine-protein kinase BMX (Homo sapiens) (UniProt P51813); conditions: Compound concentration 1000.0 nM
Chain of Cytoplasmic tyrosine-protein kinase BMX (Homo sapiens) (P51813 whole entry): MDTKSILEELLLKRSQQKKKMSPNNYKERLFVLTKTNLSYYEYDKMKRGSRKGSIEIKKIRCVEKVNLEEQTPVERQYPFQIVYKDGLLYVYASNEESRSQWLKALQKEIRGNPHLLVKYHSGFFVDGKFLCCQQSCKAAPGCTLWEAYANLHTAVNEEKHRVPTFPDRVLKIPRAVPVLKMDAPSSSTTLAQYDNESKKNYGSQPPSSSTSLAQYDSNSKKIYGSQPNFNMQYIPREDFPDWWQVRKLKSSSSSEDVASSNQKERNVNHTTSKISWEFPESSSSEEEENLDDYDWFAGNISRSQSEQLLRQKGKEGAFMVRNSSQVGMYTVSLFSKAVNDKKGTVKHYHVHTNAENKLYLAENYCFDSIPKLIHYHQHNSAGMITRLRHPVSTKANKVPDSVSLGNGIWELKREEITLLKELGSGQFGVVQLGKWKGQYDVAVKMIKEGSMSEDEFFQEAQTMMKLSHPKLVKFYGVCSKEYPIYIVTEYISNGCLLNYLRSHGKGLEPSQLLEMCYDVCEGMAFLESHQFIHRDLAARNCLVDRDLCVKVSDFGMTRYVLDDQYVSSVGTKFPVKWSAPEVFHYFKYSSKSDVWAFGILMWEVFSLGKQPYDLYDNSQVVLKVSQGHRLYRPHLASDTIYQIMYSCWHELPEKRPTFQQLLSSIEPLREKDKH

[22] = target: TGF-beta receptor type-1 (Homo sapiens) (UniProt P36897); conditions: Compound concentration 1000.0 nM
[23] = target: LIM domain kinase 1 (Homo sapiens) (UniProt P53667); conditions: Compound concentration 1000.0 nM
Chain of LIM domain kinase 1 (Homo sapiens) (P53667 whole entry, looked up, the tested form may be a part): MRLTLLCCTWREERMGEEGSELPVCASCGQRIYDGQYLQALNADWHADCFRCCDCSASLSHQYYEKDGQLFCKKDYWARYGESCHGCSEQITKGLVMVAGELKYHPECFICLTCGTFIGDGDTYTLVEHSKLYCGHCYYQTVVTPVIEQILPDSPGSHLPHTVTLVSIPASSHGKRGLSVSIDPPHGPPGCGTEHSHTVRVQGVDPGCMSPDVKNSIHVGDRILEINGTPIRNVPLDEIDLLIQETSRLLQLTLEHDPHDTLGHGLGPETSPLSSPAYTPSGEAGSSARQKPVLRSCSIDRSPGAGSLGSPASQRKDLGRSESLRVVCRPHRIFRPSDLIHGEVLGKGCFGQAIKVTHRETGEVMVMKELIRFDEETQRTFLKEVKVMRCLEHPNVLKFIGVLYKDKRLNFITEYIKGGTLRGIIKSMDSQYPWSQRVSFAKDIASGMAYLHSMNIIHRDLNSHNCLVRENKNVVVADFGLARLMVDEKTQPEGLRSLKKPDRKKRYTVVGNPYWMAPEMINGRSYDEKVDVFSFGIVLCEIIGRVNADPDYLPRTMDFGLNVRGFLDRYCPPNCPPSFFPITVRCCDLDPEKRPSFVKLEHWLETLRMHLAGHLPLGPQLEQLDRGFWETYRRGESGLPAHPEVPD

[24] = target: Serine/threonine-protein kinase pim-1 (Homo sapiens) (UniProt P11309); conditions: Compound concentration 1000.0 nM
[25] = target: Leukocyte tyrosine kinase receptor (Homo sapiens) (UniProt P29376); conditions: Compound concentration 1000.0 nM
[26] = target: Dual specificity mitogen-activated protein kinase kinase 1 (Homo sapiens) (UniProt Q02750); conditions: Compound concentration 1000.0 nM
[27] = target: Muscarinic acetylcholine receptor M3 (Homo sapiens) (UniProt P20309); conditions: Compound concentration 10.0 uM
[28] = target: Macrophage colony-stimulating factor 1 receptor (Homo sapiens) (UniProt P07333); conditions: Compound concentration 1000.0 nM
[29] = target: Serine/threonine-protein kinase TNNI3K (Homo sapiens) (UniProt Q59H18); conditions: Compound concentration 1000.0 nM
[30] = target: Serine/threonine-protein kinase Sgk3 (Homo sapiens) (UniProt Q96BR1); conditions: Compound concentration 1000.0 nM
[31] = target: Calcium/calmodulin-dependent protein kinase type II subunit gamma (Homo sapiens) (UniProt Q13555); conditions: Compound concentration 1000.0 nM
[32] = target: Muscle, skeletal receptor tyrosine-protein kinase (Homo sapiens) (UniProt O15146); conditions: Compound concentration 1000.0 nM
[33] = target: Serine/threonine-protein kinase 25 (Homo sapiens) (UniProt O00506); conditions: Compound concentration 1000.0 nM
[34] = target: Dual specificity mitogen-activated protein kinase kinase 4 (Homo sapiens) (UniProt P45985); conditions: Compound concentration 1000.0 nM
[35] = target: D(1B) dopamine receptor (Homo sapiens) (UniProt P21918); conditions: Compound concentration 10.0 uM
[36] = target: Serine/threonine-protein kinase Nek5 (Homo sapiens) (UniProt Q6P3R8); conditions: Compound concentration 1000.0 nM
[37] = target: Serine/threonine-protein kinase Nek7 (Homo sapiens) (UniProt Q8TDX7); conditions: Compound concentration 1000.0 nM
[38] = target: 1-phosphatidylinositol 3-phosphate 5-kinase (Homo sapiens) (UniProt Q9Y2I7); conditions: Compound concentration 1000.0 nM
[39] = target: Casein kinase II subunit alpha' (Homo sapiens) (UniProt P19784); conditions: Compound concentration 1000.0 nM
Chain of Casein kinase II subunit alpha' (Homo sapiens) (P19784 whole entry, looked up): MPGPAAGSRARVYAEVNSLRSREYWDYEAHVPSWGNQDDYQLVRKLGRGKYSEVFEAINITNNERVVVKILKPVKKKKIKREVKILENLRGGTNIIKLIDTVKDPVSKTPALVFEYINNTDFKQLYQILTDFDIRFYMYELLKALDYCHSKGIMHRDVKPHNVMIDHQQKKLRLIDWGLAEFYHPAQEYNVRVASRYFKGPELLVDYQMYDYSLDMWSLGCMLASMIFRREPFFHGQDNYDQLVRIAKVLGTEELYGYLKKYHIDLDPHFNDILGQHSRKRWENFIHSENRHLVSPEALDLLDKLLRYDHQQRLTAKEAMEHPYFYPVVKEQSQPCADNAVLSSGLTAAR

[40] = target: Mitogen-activated protein kinase kinase kinase 1 (Homo sapiens) (UniProt Q13233); conditions: Compound concentration 1000.0 nM
[41] = target: Cyclin-dependent kinase 19 (Homo sapiens) (UniProt Q9BWU1); conditions: Compound concentration 1000.0 nM
[42] = target: Casein kinase I isoform gamma-2 (Homo sapiens) (UniProt P78368); conditions: Compound concentration 1000.0 nM
[43] = target: MAP kinase-activated protein kinase 5 (Homo sapiens) (UniProt Q8IW41); conditions: Compound concentration 1000.0 nM
[44] = target: Mitogen-activated protein kinase 1 (Homo sapiens) (UniProt P28482); conditions: Compound concentration 1000.0 nM
[45] = target: Serine/threonine-protein kinase WNK1 (Homo sapiens) (UniProt Q9H4A3); conditions: Compound concentration 1000.0 nM

CCC(=N\O)/C(C)=C/c1ccc(F)cc1 [A-079]
inactive: residual activity [1] 100% | residual activity [2] 81% | residual activity [3] 89% | residual activity [4] 100% | residual activity [5] 100% | residual activity [6] 87% | residual activity [7] 99% | residual activity [8] 100% | residual activity [9] 100% | residual activity [10] 94% | residual activity [11] 100% | residual activity [12] 60% | residual activity [13] 100% | residual activity [14] 80% | residual activity [15] 88% | inhibition [16] 13.9% | residual activity [17] 88% | residual activity [18] 67% | residual activity [19] 100% | residual activity [20] 99% | residual activity [21] 83% | residual activity [22] 85% | residual activity [23] 78% | residual activity [24] 85% | residual activity [25] 87% | residual activity [26] 95% | inhibition [27] -6.83% | residual activity [28] 100% | residual activity [29] 70% | residual activity [30] 81% | residual activity [31] 100% | residual activity [32] 90% | residual activity [33] 86% | residual activity [34] 75% | inhibition [35] 12.2% | residual activity [36] 84% | residual activity [37] 85% | residual activity [38] 92% | residual activity [39] 100% | residual activity [40] 63% | residual activity [41] 79% | residual activity [42] 87% | residual activity [43] 91% | residual activity [44] 71% | residual activity [45] 83%

CCC(=N\O)/C(C)=C/c1ccc(F)c(C)c1 [A-226]
inactive: residual activity [1] 100% | residual activity [2] 100% | residual activity [3] 95% | residual activity [4] 57% | residual activity [5] 100% | residual activity [6] 79% | residual activity [7] 100% | residual activity [8] 86% | residual activity [9] 100% | residual activity [10] 100% | residual activity [11] 56% | residual activity [12] 100% | residual activity [13] 100% | residual activity [14] 88% | residual activity [15] 100% | inhibition [16] 4.54% | residual activity [17] 100% | residual activity [18] 95% | residual activity [19] 100% | residual activity [20] 73% | residual activity [21] 99% | residual activity [22] 88% | residual activity [23] 100% | residual activity [24] 70% | residual activity [25] 61% | residual activity [26] 95% | inhibition [27] -5.75% | residual activity [28] 98% | residual activity [29] 53% | residual activity [30] 100% | residual activity [31] 90% | residual activity [32] 100% | residual activity [33] 100% | residual activity [34] 100% | inhibition [35] 11.8% | residual activity [36] 100% | residual activity [37] 100% | residual activity [38] 100% | residual activity [39] 73% | residual activity [40] 100% | residual activity [41] 100% | residual activity [42] 100% | residual activity [43] 100% | residual activity [44] 92% | residual activity [45] 100%

From ChEMBL document CHEMBL4507256 (2021)
